# Data reported in US20110237672A1, “Use of a cysteine-containing substance to increase the ventilatory activity and erythropoietin production” (2458781 CANADA INC., priority 2001, published 2011).
# How the values were obtained:
# Type in all cases: in vivo, human
# erythropoietin (EPO) = experiment: placebo-controlled double-blind study: EPO concentration by EPO ELISA kit
# Procedure: (§1) The placebo-controlled double-blind study was performed with healthy, normotonic male non-smoking subjects. The subjects had not taken alcohol, caffeine, or any medication at least during the last 24 hours prior to the study. Also, they had not been engaged in extensive physical exercise for at least 12 hours prior to the study. Twenty-eight subjects were recruited into the study and randomized for the treatment with NAC or placebo. NAC (200 mg capsules) or placebo were administered in three doses of 600 mg per day at 8.00 a.m., 4.00 p.m. and 11.00 p.m. The plasma concentrations of acid soluble thiol (mainly cysteine) and cystine (cysteine disulfide) were determined in the cubital venous blood by a photometric assay and by the amino acid analyzer, respectively. […] The EPO concentration in serum was determined by the help of a commercial EPO ELISA kit.
# [1] = placebo-controlled double-blind study: plasma acid soluble thiol and thiol/disulfide redox status; settings: healthy male subjects, NAC three doses of 600 mg per day, vs placebo-treated group
# Procedure: as §1
# oxygen sensors = experiment: placebo-controlled double-blind study: isocapnic hypoxic ventilatory response
# Procedure: The placebo-controlled double-blind study was performed with healthy, normotonic male non-smoking subjects. The subjects had not taken alcohol, caffeine, or any medication at least during the last 24 hours prior to the study. Also, they had not been engaged in extensive physical exercise for at least 12 hours prior to the study. Twenty-eight subjects were recruited into the study and randomized for the treatment with NAC or placebo. NAC (200 mg capsules) or placebo were administered in three doses of 600 mg per day at 8.00 a.m., 4.00 p.m. and 11.00 p.m. In addition, the hypoxic ventilatory response of the subjects was quantitatively determined. The ventilatory activity was determined under two different experimental conditions using an equipment of oxychon-beta. The first measurement, the so-called “isocapnic hypoxic ventilatory response” (isocapnic HVR), was tested under normoxic conditions, i.e., under conditions of normal oxygen concentration and constant carbon dioxide concentration. The second measurement, the so-called poikilocapnic hypoxic ventilatory response (poikilocapnic HVR), was determined under normobaric conditions in a hypoxia chamber with a constant FiO2 of 12%. The term “poikilocapnic” describes study conditions characterized by a variable carbon dioxide concentration in the expiratory air, whereas the term “isocapnic” refers to conditions with a constant carbon dioxide concentration.
# [2] = summary statement of the placebo-controlled double-blind study
smiles,measurement,setting,value
"CC(=O)N[C@@H](CS)C(=O)O [NAC, N-acetylcysteine]","plasma EPO concentration after exposure to the hypoxia chamber (Eh), relative change","erythropoietin (EPO); 2 hrs after the 6-hr-exposure to the hypoxia chamber, vs placebo-treated group, P<0.05 (FIG. 1)",increased
same,"plasma EPO concentration (E), relative change","erythropoietin (EPO); before exposure to the hypoxia chamber, vs placebo-treated group, P<0.05 (FIG. 1)",increased
same,increase in plasma EPO concentration (E) between time 1 and time 2,"erythropoietin (EPO); before vs 5 days after start of treatment, P value <0.05 (FIG. 2)",significantly different from that of the placebo-treated control group
same,plasma erythropietin concentration,erythropoietin (EPO); [2],increase
same,"plasma thiol concentration (T), relative change",[1]; P<0.01 (FIG. 1),significantly increased
same,"plasma thiol/disulfide redox status (thiol^2 disulfide^−1), relative change",[1]; P<0.05 (FIG. 1),increased
same,"increase in ventilatory activity (H, isocapnic hypoxic ventilatory response) between time 1 and time 2","oxygen sensors; before vs 4 days after start of treatment, P value <0.01 (FIG. 2)",significantly different from that of the placebo-treated control group
same,"isocapnic hypoxic ventilatory response (H), relative change","oxygen sensors; healthy male subjects, NAC three doses of 600 mg per day, vs placebo-treated group (FIG. 1)",significantly increased
same,ventilatory activity,oxygen sensors; [2],increase
